Measured values published in patent publication US7879866B2, “Inhibition of the activity of the capsaicin receptor in the treatment of obesity or obesity-related diseases and disorders” (Dorte Xenia Gram, priority 2004, dated 2011).

Key:
F4/80 = assay: Relative gene expression of F4/80 in mesenteric adipose tissue (quantitative RT-PCR); assay type: in vivo, rat; details: 9 month old Zucker obese rats; 1 hour after BCTC 15 mg/kg po; vehicle as calibrator, 36B4 internal standard
Method: (§1) At 9 months of age, the same rats were tested re. mesenteric inflammatory mediators. The rats were fasted for 18 hours where after they were given BCTC at 15 mg/kg (n=10) or vehicle (n=9) orally by gavage. One hour after treatment, the rats were anaesthetized in isoflurane and decapitated. The mesenteric adipose tissue was quickly removed and transferred to 10× volume pre-chilled RNAlater (Sigma-Aldrich, USA) and stored at −20° C. To prevent area to area effect on gene expressions patterns, 0, 5-1 g tissue was homogenized in TRIzol Reagent (1 ml/100 mg tissue) (TRIzol; Invitrogen Corp.). […] PCR amplification mixtures (25 μl) contained 12.5 μl of 2× Platinum Quantitative PCR SuperMix-UDG (Invitrogen Corp.), 0.625 μl of reverse primer (20 μM), 0.625 μl forward primers (20 μM), 0.625 μl Probe (10 μM) (ProbeLibrary Exiqon A/S, Denmark) and 5 μl diluted cDNA template. Real-time quantitative PCR was carried out using MX3000P PCR machine (Stratagene, USA) with the following cycling parameters: polymerase activation for 10 minutes at 95° C. and amplification for 40 cycles of 30 seconds at 95° C. and 60 seconds at 60° C. […]
(§2) Relative gene expression of iNOS and F4/80 were determined by quantitative RT-PCR comparative Ct method (Applied Biosystems. User Bulletin #2. ABI PRISM 7700 sequence detection system, 1997) using vehicle as calibrator. […]

male Zucker obese rats = assay: Oral glucose tolerance test (OGTT) and glucose stimulated insulin secretion after oral BCTC; assay type: in vivo, rat; details: 6 month old male Zucker obese rats; BCTC 15 mg/kg p.o. at -30 min; glucose 2 g/kg po at time 0; vs vehicle
From the text: Laboratory animals: Male (n=19) Zucker obese rats were purchased from Charles River Laboratories, U.S. The rats were transported to Denmark at the age of 6 weeks and were kept under ambient controlled conditions on a normal day light cycle (lights on at 6 am, lights off at 6 pm) at the Måløv Animal Unit at Novo Nordisk A/S, Denmark from then and until the age of 9 month of age. The rats were kept in groups of 3 rats per cage until the end of the experiment in standard cages (Eurostandard Type IV, Techniplast, Scanbur, Denmark) and were given free access to acidified (0.4% citric acid) tap water and standard chow (Altromin, Brogaarden Aps, Denmark). The cages were supplied with wooden wool (Brogaarden, Denmark) as nesting material and the bedding material was aspen chips (Brogaarden, Denmark), changed twice per week as was the bottles of acidified water.
At 6 month of age, an OGTT was performed shortly after administering a capsaicin receptor antagonist (BCTC) orally. […] Fasting blood glucose and plasma insulin was determined as described below. […] The rats were left in the cage until time 0 where blood glucose was assessed followed by the OGTT. […] Blood glucose and plasma insulin was determined at time 30, 60 and 120 min after glucose. […] Following the experiment, glucose was determined using the glucose oxidase method (EBIO, Eppendorf, Germany). […]

capsaicin receptor = target: T1, capsaicin receptor (Rattus norvegicus, UniProt O35433); details: literature refs 22, 23; cited from earlier work
T1 construct: host or cells: whole animal (in vivo pain models)

iNOS = assay: Relative gene expression of iNOS in mesenteric adipose tissue (quantitative RT-PCR); assay type: in vivo, rat; details: 9 month old Zucker obese rats; 1 hour after BCTC 15 mg/kg po; vehicle as calibrator, 36B4 internal standard
Method: as §1, §2

T1 sequence (O35433 whole entry): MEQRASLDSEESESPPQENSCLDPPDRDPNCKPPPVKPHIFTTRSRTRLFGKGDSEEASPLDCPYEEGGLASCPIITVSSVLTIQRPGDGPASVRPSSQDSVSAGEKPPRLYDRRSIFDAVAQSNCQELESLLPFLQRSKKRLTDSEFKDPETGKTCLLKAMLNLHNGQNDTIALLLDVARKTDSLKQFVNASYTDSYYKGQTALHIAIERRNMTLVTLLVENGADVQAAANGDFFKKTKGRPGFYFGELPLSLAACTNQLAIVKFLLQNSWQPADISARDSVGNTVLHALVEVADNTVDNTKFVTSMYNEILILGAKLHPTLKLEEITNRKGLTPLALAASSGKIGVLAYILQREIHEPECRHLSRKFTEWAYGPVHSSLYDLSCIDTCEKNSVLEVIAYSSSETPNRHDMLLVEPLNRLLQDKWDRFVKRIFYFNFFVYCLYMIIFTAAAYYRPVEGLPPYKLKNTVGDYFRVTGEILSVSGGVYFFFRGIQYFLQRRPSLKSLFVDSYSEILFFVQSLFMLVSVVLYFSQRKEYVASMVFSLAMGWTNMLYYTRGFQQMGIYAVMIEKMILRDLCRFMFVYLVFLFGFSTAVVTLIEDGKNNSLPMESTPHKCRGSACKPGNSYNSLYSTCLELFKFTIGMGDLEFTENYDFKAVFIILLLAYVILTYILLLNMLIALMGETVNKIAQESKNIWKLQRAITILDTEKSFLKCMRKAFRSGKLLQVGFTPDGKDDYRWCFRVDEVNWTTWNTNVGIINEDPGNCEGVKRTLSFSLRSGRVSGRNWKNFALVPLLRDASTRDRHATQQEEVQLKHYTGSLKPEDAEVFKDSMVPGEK

CC(C)(C)c1ccc(NC(=O)N2CCN(c3ncccc3Cl)CC2)cc1 [BCTC, N-(4-tertiarybutylphenyl)-4-(3-chloropyridin-2-yl)tetrahydropyrazine-1(2H)-carbox-amide]
gene expression of F4/80 in mesenteric adipose tissue (F4/80): significantly lower level
blood glucose after oral glucose tolerance test (male Zucker obese rats): diminished rise in blood glucose
plasma insulin after oral glucose load (glucose stimulated insulin response) (male Zucker obese rats): considerable higher levels of insulin in plasma
inhibiting capsaicin-mediated hyperalgesia, inflammatory hyperalgesia or allodynia, and hyperalgesia after nerve injury (capsaicin receptor): shown effective
gene expression of iNOS in mesenteric adipose tissue (iNOS): significantly lower level
